Measurements as given in patent US11419856B2, “Pharmaceutical combinations for use in the treatment of neoplastic diseases” (Basilea Pharmaceutica International AG, priority 2017, dated 2022).

Test system: MDA-MB-231 xenograft (human triple negative breast cancer)
Assay: Antitumor efficacy and induction of cures in the MDA-MB-231 xenograft model (Examples 1A, 1B)
Assay type: in vivo, mouse
Procedure: Female athymic nude mice (Crl:NU(NCr)-Foxnlnu, Charles River) were used when ten weeks old with a body weight (BW) range of 19.7-27.1 g on Day 1 of the study. The animals were fed ad libitum water (reverse osmosis, 1 ppm Cl) and NIH 31 Modified and Irradiated Lab Diet® consisting of 18.0% crude protein, 5.0% crude fat, and 5.0% crude fiber. The mice were housed on irradiated Enrich-o'Cobs™ Laboratory Animal Bedding in static micro-isolators on a 12-hour light cycle at 20-22° C. (68-72° F.) and 40-60% humidity. Charles River Discovery Services North Carolina (CR Discovery Services) specifically complies with the recommendations of the Guide for Care and Use of Laboratory Animals with respect to restraint, husbandry, surgical procedures, feed and fluid regulation, and veterinary care. The animal care and use program at CR Discovery Services is accredited by the Association for Assessment and Accreditation of Laboratory Animal Care International (AAALAC), which assures compliance with accepted standards for the care and use of laboratory animals. These considerations were taken into account in the way that the dosage regimes were designed and implemented.
The human MDA-MB-231 breast adenocarcinoma cells were grown to mid-log phase in RPMI-1640 medium containing 10% fetal bovine serum, 2 mM glutamine, 100 units/mL sodium penicillin G, 25 μg/mL gentamicin, and 100 μg/mL streptomycin sulfate. The tumor cells were cultured in tissue culture flasks in a humidified incubator at 37° C./5% CO2 and 95% air, harvested during exponential growth and resuspended in cold Phosphate-buffered saline (PBS). Each test animal received a subcutaneous (s.c.) injection of 5×10^6 MDA-MB-231 cells (0.1 mL cell suspension) into the right flank, and tumor growth was monitored as the average tumor size approached the target range of 100-150 mm^3. Tumors were measured (mm) in two dimensions using calipers, and volume was calculated using the formula: Tumor Volume (TV) (mm^3)=(width^2×length)/2. Eighteen days after tumor cell implantation, on Day 1 of the study, mice with individual tumor volumes ranging from 75 to 172 mm^3 were randomized into groups of 8-10 animals, with group mean tumor volumes of 114-124 mm^3.
BAL0101553 was dissolved in 0.9% NaCl in water buffered to pH 5 with 1% sodium acetate to yield 2, 2.5 and 3 mg/mL dosing solutions, providing 20, 25 and 30 mg/kg dosages, respectively, in 10 mL/kg dosing volumes. Eribulin (purchased from Eisai Co., Lot. No. 6217, 6288, 6289 and 6309) at 0.5 mg/mL concentration was diluted in saline to yield a 0.01, 0.025 and 0.05 mg/mL dosing solutions, providing 0.1, 0.25 and 0.5 mg/kg dosages, respectively, in a dosing volume of 10 mL/kg.
Groups of mice (n=8-10) bearing MDA-MB-231 tumors were dosed as outlined in the Tables 1 and 3. All doses were adjusted to 10 mL/kg. The control groups received oral doses of vehicle (pH 5 buffered 0.9% NaCl solution). Eribulin was administered i.v. and BAL101553 orally. When eribulin and BAL0101553 were dosed in combination, Eribulin was administered to all groups first followed by BAL0101553 dosing within 30 minutes of the first regimen.
Body weights were recorded daily for days 1-5 and then twice weekly until the end of the study and tumor volumes were recorded twice weekly until the end of the experiment. These parameters were analyzed and graphically represented by using GraphPad-Prism™ 5 for Windows according to standard procedure. […] Tumor free animals at the end of the study time were assessed for residual MDA-MB-231 tumor cells by pathological methods. Skin and subcutaneous tissue including the tumor cell inoculation site from the flank region were resected, preserved in formalin and embedded in paraffin.

[1] = Day 26, Eribulin i.v. 0.1 mg/kg q2d D1-D21, 0.1 mg/kg q2d D25-D43
[2] = Day 26, Eribulin i.v. 0.25 mg/kg q2d D1-D21, 0.25 mg/kg q2d D25-D43
[3] = Day 26, Eribulin i.v. 0.5 mg/kg q2d D1-D21, 0.5 mg/kg q2d D25-D43
[4] = Day 100 (endpoint), Eribulin i.v. 0.1 mg/kg q2d D1-D21, 0.1 mg/kg q2d D25-D43
[5] = Day 100 (endpoint), Eribulin i.v. 0.25 mg/kg q2d D1-D21, 0.25 mg/kg q2d D25-D43
[6] = Day 100 (endpoint), Eribulin i.v. 0.5 mg/kg q2d D1-D21, 0.5 mg/kg q2d D25-D43
[7] = E1A, Day 25, i.v. 0-1 mg/kg q2d D1-D9, 0.1 mg/kg q2d D12-D34
[8] = E1A, Day 25, i.v. 0.5 mg/kg q2d D1-D9, 0.5 mg/kg q2d D12-D34
[9] = E1A, Day 85 (endpoint), i.v. 0-1 mg/kg q2d D1-D9, 0.1 mg/kg q2d D12-D34
[10] = E1A, Day 85 (endpoint), i.v. 0.5 mg/kg q2d D1-D9, 0.5 mg/kg q2d D12-D34

SMILES: C=C1C[C@@H]2CC[C@@]34C[C@H]5O[C@H]6[C@@H](O3)[C@H]3O[C@H](CC[C@@H]3O[C@H]6[C@H]5O4)CC(=O)C[C@@H]3[C@@H](OC)[C@@H](C[C@H](O)CN)O[C@H]3C[C@H]3O[C@@H](CC[C@@H]1O2)C[C@@H](C)C3=C.CS(=O)(=O)O [Eribulin, (2R, 3R, 3aS, 7R, 8aS, 9S, 10aR, 11S, 12R, 13aR, 13bS, 15S, 18S, 21S, 24S, 26R, 28R, 29aS)-2-[(2S)-3-Amino-2-hydroxypropyl]-3-methoxy-26-methyl-20,27-dimethylidenehexacosahydro-11,15:18,21:24,28-triepoxy-7,9-ethano-12,15-methano-9H,15H-furo[3,2-i]furo[2′,3′:5,6]pyrano[4,3-b][1,4]dioxacyclopentacosin-5(4H)-one methanesulfonate (salt)]
- # of regressed tumors (total) [1]: 2 (10)
- T/C [1]: 0.12
- # of regressed tumors (total) [2]: 8 (10)
- T/C [2]: −0.05
- # of regressed tumors (total) [3]: 10 (10)
- T/C [3]: −0.09
- # of confirmed cures (total) [4]: 0 (10)
- # of tumors with TV ≤ 4 mm^3 (total) [4]: 0 (10)
- % cures [4]: 0%
- # of confirmed cures (total) [5]: 1 (9)
- # of tumors with TV ≤ 4 mm^3 (total) [5]: 1 (10)
- % cures [5]: 11%
- # of confirmed cures (total) [6]: 6 (10)
- # of tumors with TV ≤ 4 mm^3 (total) [6]: 2 (10)
- % cures [6]: 60%
- # of regressed tumors (total) [7]: 1 (8)
- T/C [7]: 0.13
- # of regressed tumors (total) [8]: 8 (8)
- T/C [8]: −0.09
- # of confirmed cures (total) [9]: 0 (8)
- # of tumors with TV ≤ 4 mm^3 (total) [9]: 0 (8)
- % cures [9]: 0%
- # of confirmed cures (total) [10]: 1 (8)
- # of tumors with TV ≤ 4 mm^3 (total) [10]: 3 (8)
- % cures [10]: 12.5%
